Test results as given in patent publication US8329646B2, “Methods for the treatment of muscle loss” (Nestec S.A., priority 2006, dated 2012).
Entries after “also recorded” stand apart in the source; their conditions may differ.

Legend:
eIF2-α = assay: Densitometric analysis of Western blots of phosphorylated eIF2-α in C2C12 myotubes; format: cell-based, murine; conditions: FIG. 2, FIG. 3, agent in combination with PIF, compared to PIF alone or to the control
Text: (§1) In order to determine the efficacy of branched chain amino acids (BCAAs) and other agents in reducing muscle catabolism, murine C2C12 myotubes were exposed to PIF or Angiotensin II in combination with amino acids (including BCAAs), insulin, insulin-like growth factor-1 (IGF-1), and a PKR inhibitor. PIF was extracted and purified from MAC16 tumors as described by Smith et al., Effect of a Cancer Cachectic Factor on Protein Synthesis/Degradation in Murine C2C12 Myoblasts: Modulation by Eicosapentaenoic Acid, Cancer Research, 59:5507-13 (1999), which is hereby incorporated by reference. Protein degradation was determined using the method described by Whitehouse et al., Increased Expression of the Ubiquitin-Proteasome Pathway in Murine Myotubes by Proteolysis-Inducing Factor (PIF) is Associated with Activation of the Transcription Factor NF-κB, British Journal of Cancer, 89:1116-22 (2003), which is also hereby incorporated by reference.
The control sample was incubated only in phosphate buffered saline (PBS).

murine C2C12 myotubes [1] = assay: Protein synthesis in C2C12 myotubes exposed to PIF or Angiotensin II; format: cell-based; conditions: for suppression of the inhibition of protein synthesis by PIF and Ang II: in the presence of PIF or Ang II; for reduction of protein synthesis when incubated alone: FIG. 6, FIG. 8, b61, compared to the control
Text: as §1
The measured proteolytic activity of PIF can be more specifically described as ubiquitin-like degradation activity.

murine C2C12 myotubes [2] = assay: Protein degradation in C2C12 myotubes exposed to PIF or Angiotensin II; format: cell-based
Protocol: as §1, with “PIF” for “In order to determine the efficacy of branched chain amino acids (BCAAs) and other agents in reducing muscle catabolism, murine C2C12 myotubes were exposed to PIF or Angiotensin II in combination with amino acids (including BCAAs), insulin, insulin-like growth factor-1 (IGF-1), and a PKR inhibitor. PIF”

## CC(C)C[C@H](N)C(=O)O [leucine]
eIF2-α
  eIF2-α phosphorylation in the presence of PIF: reduced such phosphorylation to about the level of the control or below

## CSCC[C@H](N)C(=O)O [methionine]
eIF2-α
  eIF2-α phosphorylation in the presence of PIF: greater than that of the control

## CC(C)[C@H](N)C(=O)O [valine]
eIF2-α
  eIF2-α phosphorylation in the presence of PIF: reduced such phosphorylation to about the level of the control or below

## IGF-1: insulin-like growth factor-1
Murine C2C12 myotubes [1]
  suppression of the inhibition of protein synthesis by PIF and Ang II: effective in suppressing the inhibition of protein synthesis
eIF2-α
  eIF2-α phosphorylation in the presence of PIF: significantly reduced
eIF2-α; listed as IGF1
  eIF2-α phosphorylation in the presence of PIF: completely attenuated

## N=C(N)NCCC[C@H](N)C(=O)O [arginine]
eIF2-α
  eIF2-α phosphorylation in the presence of PIF: greater than that of the control

## Angiotensin II (DRVYIHPF; Angiotensin-2; UniProt P01019 25-32, looked up)
Murine C2C12 myotubes [1]
  reduction of protein synthesis when incubated alone: about 40%
Murine C2C12 myotubes [1]; listed as Ang II
  reduction of protein synthesis when incubated alone: 40%
Murine C2C12 myotubes [2]; FIG. 5, FIG. 7, compared to the control
  increase of protein degradation when incubated alone: about 51%

## CC[C@H](C)[C@H](N)C(=O)O [isoleucine]
eIF2-α
  eIF2-α phosphorylation in the presence of PIF: reduced such phosphorylation to about the level of the control or below

## insulin: an anabolic hormone
Murine C2C12 myotubes [1]
  suppression of the inhibition of protein synthesis by PIF and Ang II: effective in suppressing the inhibition of protein synthesis
eIF2-α
  eIF2-α phosphorylation in the presence of PIF: significantly reduced; also recorded: completely attenuated

## O=C1Nc2ccc3ncsc3c2/C1=C/c1cnc[nH]1 [PKR inhibitor]
Murine C2C12 myotubes [1]; FIG. 6, in combination with PIF
  protein synthesis levels, PKR inhibitor added to PIF: reversed protein synthesis levels back to about those of the control
Murine C2C12 myotubes [1]; FIG. 8, in combination with Angiotensin II
  protein synthesis levels, PKR inhibitor added to Angiotensin II: maintained protein synthesis levels at about that of the control
Murine C2C12 myotubes [2]; FIG. 5, in combination with PIF
  protein degradation levels, PKR inhibitor added to PIF: reversed protein degradation levels back to about those of the control
Murine C2C12 myotubes [2]; FIG. 7, in combination with Angiotensin II
  protein degradation levels, PKR inhibitor added to Angiotensin II: maintaining protein degradation levels at about that of the control
